Laboratory results reported in ChEMBL document CHEMBL1134919, “1,3,4-Trisubstituted pyrrolidine CCR5 receptor antagonists. Part 3: polar functionality and its effect on anti-HIV-1 activity” (Bioorg Med Chem Lett, 2002).

Key:
[1] = Inhibition (CIC90) of a single HIV-1 (BAL) infection cycle in HeLa Magi cells expressing both CXCR4 and CCR5 receptors over a 48 h period; format: functional; details: Homo sapiens
[2] = molecular target: T1, C-C chemokine receptor type 5 (Homo sapiens, UniProt P51681); assay: biochemical; format: cell-based, CHO
Target sequence in this assay (P51681 whole entry): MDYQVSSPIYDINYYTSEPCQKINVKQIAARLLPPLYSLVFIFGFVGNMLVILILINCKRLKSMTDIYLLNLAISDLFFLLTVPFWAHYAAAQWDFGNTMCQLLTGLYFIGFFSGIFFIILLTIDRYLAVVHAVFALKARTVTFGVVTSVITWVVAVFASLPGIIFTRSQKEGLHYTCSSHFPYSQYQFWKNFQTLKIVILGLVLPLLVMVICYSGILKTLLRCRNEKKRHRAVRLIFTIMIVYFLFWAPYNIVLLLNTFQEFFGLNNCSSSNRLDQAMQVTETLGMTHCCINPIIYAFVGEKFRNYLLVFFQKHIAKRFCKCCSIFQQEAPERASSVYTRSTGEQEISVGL

[3] = molecular target: T1, C-C chemokine receptor type 5; assay: Displacement of [125I]-labeled MIP-1alpha from the C-C chemokine receptor type 5 expressed on CHO cell membranes.; format: cell-based
Target sequence in this assay (P51681 whole entry): as above

[4] = Plasma clearance rate was determined for the compound in rat; format: ADME, organism-based; details: read-out: Clp
[5] = Half-life period was determined for the compound in rat; format: ADME, organism-based; details: in vivo
[6] = molecular target: T1, C-C chemokine receptor type 5; assay: Concentration that inhibits the entry of HIV-1 in to peripheral blood mononuclear cells (PBMCs) via the antagonism of CCR5 receptor.; format: functional
Target sequence in this assay (P51681 whole entry, looked up): as the sequence (P51681 whole entry) above

| Structure (SMILES) | IC90 [1] [nM] | IC50 [2] [nM] | further results |
| --- | --- | --- | --- |
| O=C(O)Cc1ccc(CCCC2(O)CCN(C[C@H]3CN(CC4CCCCC4)C[C@@H]3c3ccccc3)CC2)cc1 | 100 | 5 | – |
| Cn1nnnc1-c1ccc(CCCC2(O)CCN(C[C@H]3CN(CC4CCCCC4)C[C@@H]3c3ccccc3)CC2)cc1 | 100 | 0.2 | – |
| OC1(CCCc2ccc(Cc3nnn[nH]3)cc2)CCN(C[C@H]2CN(CC3CCCCC3)C[C@@H]2c2ccccc2)CC1 | 100 | 1 | – |
| C[n+]1n[nH]c(-c2ccc(CCCC3(O)CCN(C[C@H]4CN(CC5CCCCC5)C[C@@H]4c4ccccc4)CC3)cc2)n1 | > 300 | 0.4 | – |
| OC1(CCCc2cccnc2)CCN(C[C@H]2CN(CC3CCCCC3)C[C@@H]2c2ccccc2)CC1 | – | – | IC50 [3]: 6 nM |
| OC1(CCCc2ccc(-c3nnn[nH]3)cc2)CCN(C[C@H]2CN(CC3CCCCC3)C[C@@H]2c2ccccc2)CC1 | 4 | 0.2 | clearance [4]: 61 mL/min/kg; half-life [5]: 20 min |
| C=CCN(C(=O)OCc1ccc([N+](=O)[O-])cc1)C1CCN(C[C@H]2CN(C(=O)c3ccccc3Cl)C[C@@H]2c2ccccc2)CC1 | 1 | – | IC95 [6]: 31 nM |
| OC1(CCCc2ccccn2)CCN(C[C@H]2CN(CC3CCCCC3)C[C@@H]2c2ccccc2)CC1 | – | – | IC50 [3]: 7 nM |
| O=C(O)CCc1ccc(CCCC2(O)CCN(C[C@H]3CN(CC4CCCCC4)C[C@@H]3c3ccccc3)CC2)cc1 | 40 | 2 | – |
| OC1(CCCc2ccncc2)CCN(C[C@H]2CN(CC3CCCCC3)C[C@@H]2c2ccccc2)CC1 | – | – | IC50 [3]: 12 nM |

More lines, main results first:

| IC90 [1] [nM] | IC50 [2] [nM] | Structure (SMILES) | further results |
| --- | --- | --- | --- |
| > 1000 | 3 | O=C(O)c1cccc(CCCC2(O)CCN(C[C@H]3CN(CC4CCCCC4)C[C@@H]3c3ccccc3)CC2)c1 | – |
| > 1000 | 100 | O=C(O)c1ccccc1CCCC1(O)CCN(C[C@H]2CN(CC3CCCCC3)C[C@@H]2c2ccccc2)CC1 | – |
| 200 | – | OC1(CCCc2ccccc2)CCN(C[C@H]2CN(CC3CCCCC3)C[C@@H]2c2ccccc2)CC1 | IC50 [3]: 0.3 nM; IC95 [6]: 580 nM |
| 1000 | 10 | O=C(O)c1ccc(CCCC2(O)CCN(C[C@H]3CN(CC4CCCCC4)C[C@@H]3c3ccccc3)CC2)cc1 | – |
| 300 | 6 | O=C(O)Cc1cccc(CCCC2(O)CCN(C[C@H]3CN(CC4CCCCC4)C[C@@H]3c3ccccc3)CC2)c1 | – |
